In patent publication US20110311511A1, “CRYSTAL STRUCTURE OF PfA-M1 AND THE PfA-M1 Co4 COMPLEX” (priority 2008, published 2011):

Tests used:
[1] = system: recombinant P. falciparum M1 aminopeptidase (rPfA-M1); assay: Enzymatic analysis: aminopeptidase activity with fluorogenic peptide substrates (NHMec release) and inhibition; assay type: biochemical, Plasmodium falciparum; conditions: for Km / kcat: substrate of rPfA-M1, pH 7.5
Method: Aminopeptidase activity was determined by measuring the release of the fluorogenic leaving group, 7-amino-4-methyl-coumarin (NHMec) from the fluorogenic peptide substrates H-Leu-NHMec, H-Ala-NHMec, H-Arg-NHMec, H-Met-NHMec, H-Phe-NHMec, H-Gly-NHMec, H-Val-NHMec, H-Ile-NHMec and H-Pro-NHMec. Reactions were carried out in 96-well microtitre plates (200 μl total volume, 30 min, 37° C.) using a spectrofluorimeter (Bio-Tek KC4) with excitation at 370 nm and emission at 460 nm. […] […] Inhibition experiments were carried out in the presence of substrate.

[2] = system: P. c. chabaudi; conditions: cited from earlier work
[3] = molecular target: T1, PfA-M17 (Plasmodium falciparum, UniProt Q8IL11); conditions: cited from earlier work
T1 sequence (Q8IL11 84-605 limits assumed): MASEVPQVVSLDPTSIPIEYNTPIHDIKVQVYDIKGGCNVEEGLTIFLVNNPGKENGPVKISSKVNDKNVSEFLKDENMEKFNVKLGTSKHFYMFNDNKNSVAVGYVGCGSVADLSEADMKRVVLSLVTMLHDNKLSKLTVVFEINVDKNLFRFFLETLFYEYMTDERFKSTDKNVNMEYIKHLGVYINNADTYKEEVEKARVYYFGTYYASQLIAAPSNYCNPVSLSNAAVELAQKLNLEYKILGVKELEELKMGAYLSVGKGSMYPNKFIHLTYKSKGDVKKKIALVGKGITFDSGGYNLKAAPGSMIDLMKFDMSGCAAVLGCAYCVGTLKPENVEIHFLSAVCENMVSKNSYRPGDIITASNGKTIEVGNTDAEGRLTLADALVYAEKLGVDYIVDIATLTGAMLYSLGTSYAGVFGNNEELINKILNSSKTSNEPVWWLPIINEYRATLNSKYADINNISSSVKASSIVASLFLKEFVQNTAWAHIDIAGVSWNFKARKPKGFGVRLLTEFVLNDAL

Row | Compound | Km [1] [µM] | kcat [1] [s⁻¹] | Ki ([1]; inhibition of rPfA-M1, in the presence of substrate) [µM] | reduction of murine infection of P. c. chabaudi compared to controls [2] [%] | inhibition of PfA-M17 [3]
1 | CCC(C)C(N)C(=O)Nc1ccc2c(C)cc(=O)oc2c1 (stereo not shown) [H-Ile-NHmec] | 1710 | 0.040 | – | – | –
2 | H-Arg-NHmec | 717 | 1.07 | – | – | –
3 | H-Gly-NHmec | 349 | 0.116 | – | – | –
4 | Cc1cc(=O)oc2cc(NC(=O)[C@@H]3CCCN3)ccc12 [H-Pro-NHmec] | 734 | 0.0032 | – | – | –
5 | Cc1cc(=O)oc2cc(NC(=O)[C@@H](N)C(C)C)ccc12 [H-Val-NHmec] | 1070 | 0.036 | – | – | –
6 | H-Ala-NHmec | 889 | 2.04 | – | – | –
7 | H-Leu-NHmec | 330 | 1.52 | – | – | –
8 | NC(CCc1ccccc1)P(=O)(O)CC(Cc1ccccc1)C(=O)O (stereo not shown) [Co4, hPheP[CH2]Phe] | – | – | 0.0783 | 92 | inhibits
9 | H-Phe-NHmec | 195 | 0.18 | – | – | –
